Test results from ChEMBL document CHEMBL2057131, “Novel steroid inhibitors of glucose 6-phosphate dehydrogenase” (J Med Chem, 2012).
pIC50: −log10 of the molar value.

These compounds were tested against Glucose-6-phosphate 1-dehydrogenase (Homo sapiens, UniProt P11413) (assay: Inhibition of human recombinant N-terminal His tagged G6PD expressed in Escherichia coli JM109 (DE3) cells assessed as production of NADPH after 30 mins by Amplite fluorimetric assay).
Sequence of Glucose-6-phosphate 1-dehydrogenase (P11413 whole entry): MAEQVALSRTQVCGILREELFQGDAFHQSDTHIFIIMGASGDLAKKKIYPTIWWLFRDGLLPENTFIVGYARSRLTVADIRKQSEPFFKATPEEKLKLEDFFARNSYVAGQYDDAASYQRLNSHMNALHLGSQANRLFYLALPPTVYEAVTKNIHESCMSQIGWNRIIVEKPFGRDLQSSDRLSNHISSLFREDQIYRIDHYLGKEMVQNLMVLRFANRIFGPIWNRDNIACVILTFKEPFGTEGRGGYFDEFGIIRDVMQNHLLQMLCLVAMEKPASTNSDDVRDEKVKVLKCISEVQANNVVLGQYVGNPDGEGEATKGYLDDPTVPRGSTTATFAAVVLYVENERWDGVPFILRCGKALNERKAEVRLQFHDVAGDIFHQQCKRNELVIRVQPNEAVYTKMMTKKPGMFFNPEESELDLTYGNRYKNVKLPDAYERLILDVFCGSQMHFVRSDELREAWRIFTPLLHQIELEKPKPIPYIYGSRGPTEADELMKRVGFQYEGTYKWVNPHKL

SMILES | pIC50
C[C@]12CC[C@H](O)C[C@@H]1CC[C@@H]1[C@@H]2CC[C@]2(C)[C@@H](C(=O)CBr)CC[C@@H]12 | 5.60
C[C@]12CC[C@H](O)C[C@@H]1CC[C@@H]1[C@@H]2CC[C@@]2(C)[C@H]1CC[C@]2(O)C(=O)CO | 5.28
C[C@]12CC[C@H](O)C[C@@H]1CC[C@@H]1[C@@H]2CC[C@]2(C)C(=O)CC[C@@H]12 [EPIANDROSTERONE] | 5.03
C[C@]12CC[C@@H](O)C[C@@H]1CC[C@@H]1[C@@H]2CC[C@]2(C)C(=O)CC[C@@H]12 [ANDROSTERONE] | < 3.70
C/C(=N/O)[C@H]1CC[C@H]2[C@@H]3CC[C@H]4C[C@@H](O)CC[C@]4(C)[C@H]3CC[C@]12C | < 3.70
CC(=O)[C@@]1(O)CC[C@H]2[C@@H]3CC[C@H]4C[C@@H](O)CC[C@]4(C)[C@H]3C(=O)C[C@@]21C | 4.33
C[C@]12CC[C@H](O)CC1=CC[C@@H]1[C@@H]2CC[C@@]2(C)[C@H]1CC[C@@]21CCO1 | < 3.70
C[C@]12CC[C@@H](NS(C)(=O)=O)C[C@@H]1CC[C@@H]1[C@@H]2CC[C@]2(C)C(=O)CC[C@@H]12 | < 3.70
COC(=O)N[C@H]1CC[C@@]2(C)[C@@H](CC[C@@H]3[C@@H]2CC[C@]2(C)[C@@H](C(C)=O)CC[C@@H]32)C1 | < 3.70
C[C@]12CC[C@@H](O)C[C@@H]1CC[C@@H]1[C@@H]2CC[C@]2(C)[C@@H](C(=O)CO)CC[C@@H]12 | 4.50
CCS(=O)(=O)N[C@H]1CC[C@@]2(C)[C@@H](CC[C@@H]3[C@@H]2CC[C@]2(C)[C@@H](C(C)=O)CC[C@@H]32)C1 | 4.96
C[C@]12CC[C@H](NS(C)(=O)=O)C[C@@H]1CC[C@@H]1[C@@H]2CC[C@]2(C)C(=O)CC[C@@H]12 | 5.18
CC(=O)N[C@H]1CC[C@@]2(C)[C@@H](CC[C@@H]3[C@@H]2CC[C@]2(C)[C@@H](C(C)=O)CC[C@@H]32)C1 | < 3.70
CC(=O)[C@H]1CC[C@H]2[C@@H]3CC[C@H]4C[C@@H](NC(=O)N(C)C)CC[C@]4(C)[C@H]3CC[C@]12C | < 3.70
CC(=O)[C@H]1CC[C@H]2[C@@H]3CC[C@H]4C[C@@H](NS(=O)(=O)c5ccccc5)CC[C@]4(C)[C@H]3CC[C@]12C | 4.69
CO[C@]1(C(C)=O)CC[C@H]2[C@@H]3CC[C@H]4C[C@@H](O)CC[C@]4(C)[C@H]3CC[C@@]21C | < 3.70
CC(=O)OCC(=O)[C@H]1CC[C@H]2[C@@H]3CC[C@H]4C[C@@H](O)CC[C@]4(C)[C@H]3CC[C@]12C | < 3.70
CC(=O)[C@H]1CC[C@H]2[C@@H]3CC[C@H]4C[C@H](O)CC[C@]4(C)[C@H]3CC[C@]12C [BREXANOLONE] | 4.18
C[C@]12CC[C@H](N)C[C@@H]1CC[C@@H]1[C@@H]2CC[C@]2(C)C(=O)CC[C@@H]12 | < 3.70
CC(=O)[C@H]1CC[C@H]2[C@@H]3CC=C4C[C@@H](O)CC[C@]4(C)[C@H]3CC[C@]12C [PREGNENOLONE] | 4.09
CC(=O)C[C@H]1CC[C@H]2[C@@H]3CC[C@H]4C[C@@H](O)CC[C@]4(C)[C@H]3CC[C@]12C | < 3.70
CC(=O)[C@H]1CC[C@H]2[C@@H]3CC[C@H]4C[C@@H](NC(N)=O)CC[C@]4(C)[C@H]3CC[C@]12C | < 4.00
C[C@]12CC[C@H](O)C[C@@H]1CC[C@@H]1[C@@H]2CC[C@@]2(C)[C@H]1CC[C@@]21CCO1 | < 3.70
C[C@]12CC[C@H](NC(N)=O)C[C@@H]1CC[C@@H]1[C@@H]2CC[C@]2(C)C(=O)CC[C@@H]12 | 5.30
C[C@]12CC[C@H](O)C[C@@H]1CC[C@@H]1[C@@H]2CC[C@@]2(C)[C@H]1CC[C@@]21CO1 | < 3.70

SMILES | pIC50
CCNC(=O)NC1CC[C@@]2(C)[C@@H](CC[C@@H]3[C@@H]2CC[C@]2(C)[C@@H](C(=O)CO)CC[C@@H]32)C1 (some centres undefined) | 4.46
CNC(=O)N[C@H]1CC[C@@]2(C)[C@@H](CC[C@@H]3[C@@H]2CC[C@]2(C)C(=O)CC[C@@H]32)C1 | 4.91
CCCCNC(=O)N[C@H]1CC[C@@]2(C)[C@@H](CC[C@@H]3[C@@H]2CC[C@]2(C)C(=O)CC[C@@H]32)C1 | 5.77
C[C@]12CC[C@H]3[C@@H](CC=C4C[C@@H](O)CC[C@@]43C)[C@@H]1CC[C@@H]2C(=O)CO | 5.28
CC(=O)[C@H]1CC[C@H]2[C@@H]3CC[C@H]4C[C@@H](O)CC[C@]4(C)[C@H]3CC[C@]12C [SEPRANOLONE] | 5.37
CC(=O)[C@H]1CC[C@H]2[C@@H]3CC[C@H]4C[C@@H](NS(=O)(=O)N(C)C)CC[C@]4(C)[C@H]3CC[C@]12C | 4.42
CC(=O)[C@@]12O[C@@H]1C[C@H]1[C@@H]3CC[C@H]4C[C@@H](O)CC[C@]4(C)[C@H]3CC[C@@]12C | < 3.70
C[C@]12CC[C@H](O)C[C@@H]1CC[C@@H]1[C@@H]2CC[C@]2(C)C(=O)[C@H](Br)C[C@@H]12 [16.ALPHA.-BROMOEPIANDROSTERONE] | 4.68
CCS(=O)(=O)N[C@H]1CC[C@@]2(C)[C@@H](CC[C@@H]3[C@@H]2CC[C@]2(C)C(=O)CC[C@@H]32)C1 | 4.15
COC(=O)N[C@H]1CC[C@@]2(C)[C@@H](CC[C@@H]3[C@@H]2CC[C@]2(C)[C@@H](C(=O)CO)CC[C@@H]32)C1 | 4.38
C[C@]12CC[C@@H](NS(N)(=O)=O)C[C@@H]1CC[C@@H]1[C@@H]2CC[C@]2(C)C(=O)CC[C@@H]12 | < 3.70
CC(=O)[C@H]1CC[C@H]2[C@@H]3CC[C@H]4C[C@@H](O)CC[C@]4(C)[C@H]3C(=O)C[C@]12C | 4.80
CC(=O)[C@H]1CC[C@H]2[C@@H]3CC[C@H]4C[C@@H](N)CC[C@]4(C)[C@H]3CC[C@]12C | < 3.70
CN(C)C(=O)N[C@H]1CC[C@@]2(C)[C@@H](CC[C@@H]3[C@@H]2CC[C@]2(C)C(=O)CC[C@@H]32)C1 | < 3.70
CCNC(=O)N[C@@H]1CC[C@@]2(C)[C@@H](CC[C@@H]3[C@@H]2CC[C@]2(C)C(=O)CC[C@@H]32)C1 | < 3.70
CC(=O)N[C@H]1CC[C@@]2(C)[C@@H](CC[C@@H]3[C@@H]2CC[C@]2(C)C(=O)CC[C@@H]32)C1 | 3.89
C[C@]12CC[C@H](O)CC1=CC[C@@H]1[C@@H]2CC[C@]2(C)C(=O)[C@H](O)C[C@@H]12 | 4.80
C[C@]12CC[C@H](O)C[C@@H]1CC[C@@H]1[C@@H]2CC[C@]2(C)/C(=N/O)CC[C@@H]12 | < 3.70
C[C@]12CCCC[C@@H]1CC[C@@H]1[C@@H]2CC[C@]2(C)C(=O)CC[C@@H]12 | < 3.70
C[C@]12CC[C@H](NS(=O)(=O)c3ccccc3)C[C@@H]1CC[C@@H]1[C@@H]2CC[C@]2(C)C(=O)CC[C@@H]12 | 5.00
C[C@]12CC[C@H](O)CC1=CC[C@@H]1[C@@H]2CC[C@@]2(C)[C@H]1CC[C@@]21CO1 | < 3.70
C[C@]12CC[C@H](O)C[C@@H]1CC[C@H]1[C@@H]3CC[C@H](C(=O)CO)[C@@]3(C)CC(=O)[C@@H]12 | 5.20
C[C@]12CC[C@@H](N)C[C@@H]1CC[C@@H]1[C@@H]2CC[C@]2(C)C(=O)CC[C@@H]12 | < 3.70
C[C@]12CC[C@H](O)C[C@@H]1CC[C@@H]1[C@@H]2CC[C@]2(C)[C@@H](C(=O)CCl)CC[C@@H]12 | 5.03
